The test system of one assay is U-251 MG cells. In words: Cell viability assay (MTT), CPT-11 after adenoviral infection. The format is cell-based. The note with it: Homo sapiens, U-251, 48 h, CPT-11 added 48 hours later. The method, then: (§1) Cell cycle analysis. The DNA content was measured in samples of 10^6 cells that had been infected with 10 MOIs of Delta-24 or UVi Delta-24 or had been mock infected. Forty-eight hours later, cultures were treated with CPT-11 (4 μmol/L) or vehicle. Cells were trypsinized 3 to 5 days after drug treatment, fixed in 70% ice-cold ethanol, and incubated with propidium iodide (5 μg/mL) and RNase A (1 μg/mL) for 20 minutes at 37° C. All DNA content measurements were done with an EPICS XL-MCL cytometer (Coulter Corp., Hialeah, Fla.) equipped with an air-cooled argon ion laser emitting 488 nm at 15 mW. A multicycle program (Phoenix Flow System; Phoenix Controls Corp., San Diego, Calif.) was used for data analysis. Cell viability assays. The chemosensitivity of the treated glioma cells was assessed by using the tetrazolium salt 3-(4,5-dimethylthiazol-2-yl)-2,5-diphenyltetrazolium bromide (Sigma-Aldrich) to measure cell viability. For this assay, 2×10^3 cells per well were seeded in 96-well microtiter plates and infected 24 hours later with Delta-24 (at 1, 2.5, 5, or 10 MOs) or Uvi Delta-24 (10 MOs) or were mock infected. Forty-eight hours after adenoviral treatment, the cells were treated with various concentrations of CPT-11. Triplicate wells were used for each condition. Sixteen wells seeded with untreated glioma cells were used as a viability control, and 16 wells containing only complete medium were used as a control for nonspecific dye reduction. Medium was removed 72 hours after drug treatment, and 100 μL 3-(4,5-dimethylthiazol-2-yl)-2,5-diphenyltetrazolium bromide solution (1 mg/mL) was added to each well. The plates were then incubated for an additional 4 hours and then read on a Spectramax 190 microplate reader (Molecular Devices, Sunnyvale, Calif.) at a test wavelength of 570 nm.

A further assay deals with U-87 MG cells. Described as above. The class given is cell-based. The note with it: Homo sapiens, 48 h. The method, then:
as §1

Assay [1] has as its system U-87 MG and U-251 MG glioma cells. The assay is described as follows: Cell viability assay (MTT), CPT-11 and Delta-24, results stated for both cell lines. The format is cell-based, human. As to the method:
as §1, with “For this assay, 2×10^3 cells per well were seeded in 96-well microtiter plates and infected 24 hours later with Delta-24 (at 1, 2.5, 5, or 10 MOs) or Uvi Delta-24 (10 MOs) or were mock infected.” left out, “Sixteen wells seeded with untreated glioma cells were used as a viability control, and 16 wells containing only complete medium were used as a control for nonspecific dye reduction. Medium was removed 72 hours after drug treatment, and 100 μL 3-(4,5-dimethylthiazol-2-yl)-2,5-diphenyltetrazolium bromide solution (1 mg/mL) was added to each well.” left out

In assay [2] the test system is U-87 MG human glioma xenograft. The assay is described as follows: Intracranial human glioma xenograft, Delta-24/CPT-11 sequential treatment. The conditions noted are these: Delta-24 1.5×10^8 viral particles intratumoral day 3; CPT-11 5 mg/kg i.p. days 7, 12, 20; control median survival 27 days. The format is in vivo, athymic mice. As to the method:
Animal model. To assess the potential therapeutic relevance of the findings from the in vitro studies, we tested the Delta-24/CPT-11 sequential treatment in an in vivo model of a human glioma xenograft implanted intracranially. The U-87 MG cell line was selected as an exemplary cell line because it produces gliomas in nude mice with highly predictable growth kinetics and well-characterized pathologic features (Lal et al., 2000). To perform a reliable multiple-dose experiment, an implantable guide-screw system was developed that allows for multiple, precise intratumoral administrations of a therapeutic agent(s) (Lal et al., 2000) and has been validated for testing the antiglioma effect of Delta-24 (Fueyo et al., 2003). In this study, 5×10^5 cells of the U-87 MG human glioma cell line were engrafted in the caudate nucleus of athymic mice (Harlan- Sprague-Dawley, Inc., Indianapolis, Ind.). On day 3 after cell implantation, animals were treated with a single intratumoral injection of Delta-24 or UVi Delta-24 (1.5×10^8 viral particles in 5 μL). […] H&E-stained slides were analyzed for evidence of tumor, necrosis, and viral nuclear inclusions. […]
Statistical analyses. […] The in vivo anticancer effect of different treatments was assessed by plotting survival curves according to the Kaplan-Meier method, and groups were compared using the log-rank test.
A general note: Xenograft models place foreign cells or tissue in a host animal.

For assay [3], the system named is U-87 MG and U-251 MG human glioma cells. The assay is described as follows: Cell cycle analysis (DNA content, flow cytometry), Delta-24 and CPT-11. The class given is cell-based. The conditions noted are these: CPT-11 4 μmol/L, alone or 48 hours after 10 MOIs Delta-24. The method, then:
as §1, with “Forty-eight hours after adenoviral treatment, the cells were treated with various concentrations of CPT-11. Triplicate wells were used for each condition. Sixteen wells seeded with untreated glioma cells were used as a viability control, and 16 wells containing only complete medium were used as a control for nonspecific dye reduction. Medium was removed 72 hours after drug treatment, and 100 μL 3-(4,5-dimethylthiazol-2-yl)-2,5-diphenyltetrazolium bromide solution (1 mg/mL) was added to each well.” left out

A further assay relates to U-87 MG cell line. The assay is described as follows: In vitro combination of ICOVIR-5 with TMZ or RAD001. The class given is cell-based, human.
For the next assay, the system named is U87-MG xenografts. The assay is described as follows: Intracranial glioma xenograft, ICOVIR-5 in combination with RAD001 or TMZ. The note with it: ICOVIR-5 3×10^7 pfu/mouse intratumoral day 3, 5, 7; RAD001 5 mg/kg/d; TMZ 7.5 mg/kg/5 days; control 30.5 days. The class given is in vivo, athymic mice. As to the method: Animal Studies. U87 MG human glioma cells (5×10^5) were engrafted into the caudate nucleus of athymic mice using a guide-screw system, as previously described (Lal, 2000). The inventors performed three independent experiments using 10 animals per group in each experiment. On days 3, 5, and 7 after implantation of tumor cells, animals were treated with 5 μl intratumoral injections of ICOVIR-5, PBS or adenovirus control (all 3×10^8 pfu/ml). Animals showing general or local symptoms of toxicity were killed. Surviving animals were killed 140 days after tumor implantation. Brains were then removed, fixed in 4% formaldehyde for 24 hours at room temperature, and embedded in paraffin. Hematoxylin-and-eosin-stained sections were evaluated for evidence of tumor, necrosis, and viral nuclear inclusions. The largest (a) and the smallest (b) diameters of the tumors were measures, and these measurements were used in the calculation of tumor volume using the formula a×b2×0.4 (Attia, 1966). […]
Statistical Analysis. […] Data are expressed as mean±SD or 95% confidence intervals (CIs). The in vivo cytopathic effect of ICOVIR-5 on human glioma xenografts was assessed by plotting survival curves according to the Kaplan-Meier method. […]

SMILES strings stand for the structures. Like-named read-outs stand apart in the source and are kept apart here.

These results are taken from patent US20070292396A1, “COMBINATION THERAPY WITH ONCOLYTIC ADENOVIRUS” (priority 2006, published 2007).

Consider `CCc1c2c(nc3ccc(OC(=O)N4CCC(N5CCCCC5)CC4)cc13)-c1cc3c(c(=O)n1C2)COC(=O)[C@]3(O)CC` [CPT-11, irinotecan], for which the IC50 in the assay on U-251 MG cells (read-out: IC50 dose of CPT-11, U-251 MG cells infected with Delta-24 at 10 MOIs) amounted to 1000 nM; with U-251 MG cells (read-out: IC50 dose of CPT-11, UVi Delta-24-infected U-251 MG cells), 7200 nM; in the assay on U-87 MG cells (read-out: IC50 dose of CPT-11, U-87 MG cells infected with Delta-24 at 10 MOIs, CPT-11 added 48 hours later), 1500 nM; in the assay with U-87 MG cells (read-out: IC50 dose of CPT-11, U-87 MG cells infected with UVi Delta-24, CPT-11 added 48 hours later), 3400 nM; in assay [1] (Homo sapiens, read-out: IC50 for CPT-11, both U-87 MG and U-251 MG cells infected with 2 MOIs of Delta-24) it was 2500 nM. Also, in assay [1] (both cell lines, CPT-11 alone), the “inhibition of cell proliferation” value is “inhibited cell proliferation in a concentration dependent fashion”. The “extension of survival (average) over control” value in assay [2] was determined as 4 days. Also, in assay [3], the “cells in the G2-M phase” value was > 55 % of the cells in culture.
With `CO[C@H]1C[C@@H]2CC[C@@H](C)[C@@](O)(O2)C(=O)C(=O)N2CCCC[C@H]2C(=O)O[C@H]([C@H](C)C[C@@H]2CC[C@@H](OCCO)[C@H](OC)C2)CC(=O)[C@H](C)/C=C(\C)[C@@H](O)[C@@H](OC)C(=O)[C@H](C)C[C@H](C)/C=C/C=C/C=C/1C` [RAD001], the “effect of drug on adenoviral replication in vitro (fiber expression, western blot and RT-QT-PCR)” value in the assay with U-87 MG cell line was “neither RAD001 nor TMZ suppressed adenoviral replication in vitro”. Further, the mean survival in the assay on U87-MG xenografts is reported as 49 days.
In the case of `Cn1nnc2c(C(N)=O)ncn2c1=O` [TMZ, temozolomide], the mean survival with U87-MG xenografts was found to be 35.5 days.
